According to the supplement of paper PMC10627819:

Key:
Experiment in all cases: fitness (endpoint OD595 vs no drug) (fraction); higher = more growth
B. subtilis 168 = tested on: B. subtilis 168
Outline: (§1)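 Fitness expresses the optical density reached at the stationary-phase transition as a fraction of the robust mean of no-drug control wells. It is capped at 1. Measurements were OD595 every 30 min for 14 h at 37 °C after inoculation of 384-well plates at OD595 0.01 (30 µl, or 55 µl for S. pneumoniae), minus the first reading.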

S. pneumoniae D39V = tested on: S. pneumoniae D39V
Outline: as §1

S. aureus Newman = tested on: S. aureus Newman
Outline: as §1
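Note: OD595 on entry to stationary phase over no-drug wells; at most 1.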

O=C(O)[C@H]1/C(=C/CO)O[C@@H]2CC(=O)N21 [Clavulanic acid] + CN(C)C(=O)C(CCN1CCC(O)(c2ccc(Cl)cc2)CC1)(c1ccccc1)c1ccccc1 [Loperamide]
fitness
Details	first compound 0.5 µg/mL	first compound 1 µg/mL	first compound 1.5 µg/mL	first compound 2 µg/mL	first compound 3 µg/mL	first compound 6 µg/mL
B. subtilis 168, partner 25 µg/mL	–	–	0.848	–	0.742	0.614
S. pneumoniae D39V, partner 17.14 µg/mL	0.954	0.95	–	0.836	–	–
S. pneumoniae D39V, partner 20 µg/mL	≥ 1	≥ 1	–	0.89	–	–
S. pneumoniae D39V, partner 34.28 µg/mL	0.931	0.913	–	0.75	–	–
S. pneumoniae D39V, partner 40 µg/mL	≥ 1	≥ 1	–	0.926	–	–
S. pneumoniae D39V, partner 80 µg/mL	0.0391	0.185	–	0.0465	–	–

S. pneumoniae D39V, partner 68.57 µg/mL, one replicate
Details	fitness
first compound 0.5 µg/mL	0.952
first compound 1 µg/mL	0.944
first compound 2 µg/mL	0.849

O=C(O)[C@H]1/C(=C/CO)O[C@@H]2CC(=O)N21 [Clavulanic acid] + Clc1ccc(COC(Cn2ccnc2)c2ccc(Cl)cc2Cl)c(Cl)c1 [Miconazole]
fitness, S. pneumoniae D39V
Details	partner 1.073 µg/mL	partner 1.25 µg/mL	partner 2.145 µg/mL	partner 2.5 µg/mL	partner 4.29 µg/mL	partner 5 µg/mL
first compound 0.5 µg/mL	≥ 1	0.956	0.973	0.981	0.924	0.94
first compound 1 µg/mL	≥ 1	0.876	0.923	0.873	0.883	0.838
first compound 2 µg/mL	0.898	0.715	0.787	0.66	0.754	0.653

O=C(O)[C@H]1/C(=C/CO)O[C@@H]2CC(=O)N21 [Clavulanic acid] + CO[C@H]1/C=C/O[C@@]2(C)Oc3c(C)c(O)c4c(O)c(c(/C=N/N5CCN(C)CC5)c(O)c4c3C2=O)NC(=O)/C(C)=C\C=C\[C@H](C)[C@H](O)[C@@H](C)[C@@H](O)[C@@H](C)[C@H](OC(C)=O)[C@@H]1C [Rifampicin]
fitness, S. pneumoniae D39V
Details	first compound 0.5 µg/mL	first compound 1 µg/mL	first compound 2 µg/mL
partner 0.025 µg/mL	≥ 1	0.919	–
partner 0.1 µg/mL	–	0.421	0.239

S. pneumoniae D39V, partner 0.2 µg/mL, one replicate
Details	fitness
first compound 0.5 µg/mL	0
first compound 1 µg/mL	0
first compound 2 µg/mL	0

O=C(O)[C@H]1/C(=C/CO)O[C@@H]2CC(=O)N21 [Clavulanic acid] + C[C@H]1c2cccc(O)c2C(=O)C2=C(O)[C@]3(O)C(=O)C(C(N)=O)=C(O)[C@@H](N(C)C)[C@@H]3[C@@H](O)[C@@H]21 [Doxycycline]
Details	fitness
B. subtilis 168, first compound 1.5 µg/mL, partner 0.02 µg/mL	0.862
B. subtilis 168, first compound 1.5 µg/mL, partner 0.04 µg/mL	0.762
B. subtilis 168, first compound 3 µg/mL, partner 0.02 µg/mL	0.852
B. subtilis 168, first compound 3 µg/mL, partner 0.04 µg/mL	0.721
B. subtilis 168, first compound 6 µg/mL, partner 0.02 µg/mL	0.728
B. subtilis 168, first compound 6 µg/mL, partner 0.04 µg/mL	0.628
B. subtilis 168, first compound 6 µg/mL, partner 0.08 µg/mL	0.375
S. pneumoniae D39V, first compound 0.5 µg/mL, partner 0.0155 µg/mL	0.929
S. pneumoniae D39V, first compound 1 µg/mL, partner 0.0155 µg/mL	0.892
S. pneumoniae D39V, first compound 1 µg/mL, partner 0.031 µg/mL	0.615
S. pneumoniae D39V, first compound 1 µg/mL, partner 0.062 µg/mL	0.429
S. pneumoniae D39V, first compound 2 µg/mL, partner 0.0155 µg/mL	0.73
S. pneumoniae D39V, first compound 2 µg/mL, partner 0.031 µg/mL	0.45
S. pneumoniae D39V, first compound 2 µg/mL, partner 0.062 µg/mL	0.281

fitness, S. pneumoniae D39V, one replicate
Details	first compound 0.5 µg/mL	first compound 1 µg/mL	first compound 2 µg/mL
partner 0.003875 µg/mL	≥ 1	0.985	0.9
partner 0.00775 µg/mL	0.998	0.964	0.895

O=C(O)[C@H]1/C(=C/CO)O[C@@H]2CC(=O)N21 [Clavulanic acid] + CC[C@H]1OC(=O)[C@H](C)[C@@H](O[C@H]2C[C@@](C)(OC)[C@@H](O)[C@H](C)O2)[C@H](C)[C@@H](O[C@@H]2O[C@H](C)C[C@H](N(C)C)[C@H]2O)[C@](C)(OC)C[C@@H](C)C(=O)[C@H](C)[C@@H](O)[C@]1(C)O [Clarithromycin]
fitness, S. pneumoniae D39V, one replicate
Details	first compound 0.5 µg/mL	first compound 1 µg/mL	first compound 2 µg/mL
partner 0.007812 µg/mL	0.855	0.828	0.801
partner 0.01562 µg/mL	0.829	0.792	0.769
partner 0.03125 µg/mL	0.597	0.574	0.509

fitness, S. pneumoniae D39V
Details	partner 0.0625 µg/mL	partner 0.07 µg/mL	partner 0.125 µg/mL	partner 0.14 µg/mL	partner 0.25 µg/mL	partner 0.28 µg/mL
first compound 0.5 µg/mL	0.486	0.103	0.232	0.0628	0.0756	0.0401
first compound 1 µg/mL	0.541	0.088	0.361	0.0781	0.209	0.0556
first compound 2 µg/mL	0.325	0.0584	0.191	0.062	0.0711	0.0369

O=C(O)[C@H]1/C(=C/CO)O[C@@H]2CC(=O)N21 [Clavulanic acid] + CCCCCCCCCC(=O)N[C@@H]1[C@H]([C@@H]([C@H](O[C@H]1OC2=C3C=C4C=C2OC5=C(C=C(C=C5)[C@H]([C@H]6C(=O)N[C@@H](C7=C(C(=CC(=C7)O)OC8[C@H]([C@H]([C@@H]([C@H](O8)CO)O)O)O)C9=C(C=CC(=C9)[C@H](C(=O)N6)NC(=O)[C@@H]4NC(=O)[C@@H]1C2=CC(=CC(=C2)OC2=C(C=CC(=C2)[C@H](C(=O)N[C@H](CC2=CC(=C(O3)C=C2)Cl)C(=O)N1)N)O)O)O)C(=O)O)O[C@H]1[C@@H]([C@H]([C@@H]([C@H](O1)CO)O)O)NC(=O)C)Cl)CO)O)O [Teicoplanin]
fitness, S. aureus Newman, one replicate, main component drawn
Details	first compound 0.03125 µg/mL	first compound 0.0625 µg/mL	first compound 0.125 µg/mL
partner 0.1562 µg/mL	0.992	0.966	0.916
partner 0.3125 µg/mL	0.924	≥ 1	0.894
partner 0.625 µg/mL	≥ 1	≥ 1	0.967

Cc1onc(-c2ccccc2)c1C(=O)N[C@@H]1C(=O)N2[C@@H]1SC(C)(C)[C@@H]2C(=O)O [Oxacillin] + CC1(C)S[C@@H]2[C@H](NC(=O)Cc3ccccc3)C(=O)N2[C@H]1C(=O)O [Penicillin G]
fitness, S. aureus Newman
Details	partner 0.0195 µg/mL	partner 0.039 µg/mL	partner 0.078 µg/mL
first compound 0.0156 µg/mL	0.768	0.748	0.727
first compound 0.0312 µg/mL	0.659	0.688	0.66

Clc1ccc(COC(Cn2ccnc2)c2ccc(Cl)cc2Cl)c(Cl)c1 (stereo unspecified) [Miconazole] + CO[C@@]12[C@H](COC(N)=O)C3=C(C(=O)C(C)=C(N)C3=O)N1C[C@@H]1N[C@@H]12 [Mitomycin C]
fitness, S. pneumoniae D39V
Details	first compound 1.073 µg/mL	first compound 1.25 µg/mL	first compound 2.145 µg/mL	first compound 2.5 µg/mL	first compound 4.29 µg/mL	first compound 5 µg/mL
partner 0.001075 µg/mL	–	0.983	–	0.979	–	0.95
partner 0.002 µg/mL	0.882	–	0.883	–	0.779	–
partner 0.00215 µg/mL	–	0.88	–	0.898	–	0.907
partner 0.004 µg/mL	0.854	–	0.826	–	0.742	–
partner 0.0043 µg/mL	–	0.786	–	0.777	–	0.812
partner 0.008 µg/mL	0.718	–	0.748	–	0.64	–
